Results: PMC4876437, “Novel application of hydrophobin in medical science: a drug carrier for improving serum stability” (Scientific Reports, 2016)

How the values were obtained:
insulin secretion = experiment: Insulin stimulation assay after oral glucose administration; format: in vivo; settings: Wistar rats, s.c. 100 μg GLP-1/kg 30 min before oral glucose 10 g/kg, n = 3 per group, mean ± SE
Description: The insulin secretion assay was performed by injecting the complex (100 μg GLP-1/kg body weight) into male Wistar rats (n = 3 per group). Wild-type GLP-1 (100 μg/kg body weight) and saline were injected subcutaneously as controls. Glucose (10 g/kg body weight, a standard dose for oral glucose administration) was orally administered 30 min after injections of the complexes. […] Blood samples were assayed for insulin levels using a rat insulin RIA kit.

INS-1 cells = experiment: cAMP accumulation measurement (HTRF); format: cell-based, rat
Description: For the cAMP assay, INS-1 cells (1.0 × 10^5 cells) were seeded and plated in each well of a 96-well opaque white plate. […] Subsequently, 10 μg of GLP-1 or complex was added. The assay plate was treated with 2.5 μl/well cAMP and an equal volume of anti-cAMP conjugate (Cisbio) after a 1 h incubation. The homogenous time-resolved fluorescence (HTRF) signal was read on a SpectraMax M5 (Molecular Device) microplate reader. The ratio of […] at 665 nm and 620 nm (×10,000) was calculated and plotted.

blood glucose and HbA1c = experiment: Long-term anti-diabetic activity (glucose, HbA1c) over 46 days; format: in vivo; settings: ZDF rats, 250 μg/kg body weight every three days, glucometer
Description: Male ZDF rats (n = 11 per group) were treated with complex (250 μg/kg/3 days) for the entire experimental period (46 days). The control groups were injected with wild-type GLP-1 (250 μg/3 days). HbA1c levels were assessed using a DCA 200 analyzer (Bayer Diagnostics), and glucose levels were monitored during the experimental period.

[1] = Stabilization (serum stability / pharmacokinetic) study: circulating free GLP-1 in rats by GLP-1 (7-37) ELISA; format: in vivo; settings: Wistar rats, s.c., 500 μg GLP-1/kg, n = 6 per group
Description: The stabilities of wild-type hydrophobin/GLP-1 and hydrophobin E24K/GLP-1 complexes were investigated to determine whether the complex protects GLP-1 against protease degradation. Two complexes, hydrophobin/GLP-1 (pH 7.0, molar ratio of 1:10) and hydrophobin E24K/GLP (pH 4.0, molar ratio of 1:10) were administered subcutaneously to male Wistar rats (500 μg GLP-1/kg body weight, n = 6 per group), and blood samples from the rats were directly drawn into P700*, K2EDTA tubes (BD Biosciences, Franklin Lakes, NJ) by venipuncture at 0.5, 1, 4, 12, 24, 48, 72 and 96 h. Serum samples (200 μl) were immediately analyzed using a native GLP-1 (7-37) ELISA kit after being centrifuged for 20 min at 13,000 rpm. The amount of free GLP-1 measured in this assay was considered an indicator of the serum serum stability of the complex.

[2] = system: dipeptidyl peptidase IV (DPP-IV); settings: cited from earlier work
Source text: The extremely poor serum stability renders the therapeutic administration of GLP-1 impractical; therefore, many efforts have focused on altering the pharmacokinetic properties of GLP-1 by developing a series of complexes and analogs, such as exenatide, liraglutide and albiglutide. […] In ad ...

blood glucose = experiment: Single-dose glucoregulatory assay (glucose tolerance test); format: in vivo; settings: Wistar rats, GLP-1 alone, glucose 2 g/kg i.p.
[3] = target: hydrophobin E24K (mutated at the 24th residue)
[4] = target: wild-type hydrophobin protein (HGFI)

Substance	insulin level at 5 min after oral glucose (insulin secretion) [pmol/L]	peak cellular cAMP level (INS-1 cells; INS-1 cells 1.0 × 10^5, 500 μM IBMX, 10 μg GLP-1, at 2 min, HTRF, mean ± SE) [pmol/10^5 cells]	time at which cAMP declined to baseline (INS-1 cells; INS-1 cells, HTRF-cAMP kit) [min]	time of cAMP peak (INS-1 cells; INS-1 cells, HTRF-cAMP kit) [min]	long-lasting glucose regulatory effect (blood glucose and HbA1c)	time after administration at which circulating GLP-1 was undetectable [1] [h]	renal clearance (time) ([2]; in vivo)	lifetime in vivo ([2]; native GLP-1, in vivo, inactivation by DPP-IV) [min]	serum stability of GLP-1 ([2]; rapid degradation by DPP-IV) [min]	blood glucose in single-dose glucose tolerance test (blood glucose)	AUC of free GLP-1 in the serum of Wistar rats within 96 h after subcutaneous injection of the complex, fold over GLP-1 alone (GLP-1 (7-37) ELISA) [3] [fold]	AUC of free GLP-1 in the serum of Wistar rats within 96 h after subcutaneous injection of the complex, fold over GLP-1 alone (GLP-1 (7-37) ELISA) [4] [fold]
glucagon-like peptide-1 [GLP-1]	827.09 ± 37.77	17.03 ± 0.94	10	2	failed to produce a similar glucose regulatory effect	4	less than 10 min	< 2	3 to 5	remained at high levels		
glucagon-like peptide-1 (GLP-1)											3	6.3
